Results as given in patent US7485327B2, “Composition comprising Melissa leaf extract for anti-angiogenic and matrix metalloproteinase inhibitory activity” (AngioLab, Inc., priority 2001, dated 2009).

Test system: B16BL6 cells
Test: Cancer metastasis: B16BL6 melanoma colonies in lung
Type: in vivo, C57BL/6 male mouse
Description: B16BL6 cells (5×10^4) were injected into C57BL/6 male mouse of 6 to 7 weeks old through the tail vein. After that, 0.2 ml of water or drug combinations was daily given to mice by oral administration for 3 weeks. Three weeks after injection, the mice were sacrificed and the number of tumor colonies on the surface of lungs was counted under microscope. The average number of melanoma colonies in lungs from mice of treated group was less than that from control mice.

Clc1ccccc1CN1CCc2sccc2C1 [Ticlopidine, ticlopidine]
Inhibition (%) of metastasis (oral daily for 3 weeks): 38%
Colonies in lung (oral daily for 3 weeks after tail vein injection of B16BL6 cells): 83 ± 20
